The values below come from patent publication US6559167B1, “Prodrugs of proton pump inhibitors” (Regents of the University of California, priority 1998, dated 2003).

Where “and” joins values, the source holds several entries; their conditions need not be identical. Equal values may be shown once.

As a reminder, the half-life is how long it takes for the measured level to halve.

In data set [1] the test system is gastric acid secretion of the conscious male rat. As to the kind of experiment: Inhibitory effect on gastric acid secretion of the conscious male rat at timed intervals after oral administration. The format is in vivo. More on the design: inhibition of gastric acid secretion: concentration or dose not given beside the values. The note with it: for % inhibition of gastric acid secretion: male rat; for inhibition of gastric acid secretion: after 5 hr of oral administration.

Data set [2] in a line: Relative plasma concentration of OMEPRAZOLE in male rat after oral administration.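 Also: Sprague-Dawley rats fasted one day with water available, dosed orally with prodrug compounds, OMEPRAZOLE quantified by HPLC in plasma from serial blood draws, control given OMEPRAZOLE itself orally.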 The settings on record: male rat.
Procedure: Male adult rats of the Sprague-Dawley strain were used for determining the concentration of OMEPRAZOLE in the plasma. All rats were derived of food but not of water for one day. Examples of compounds of the invention (2 mg/kg of rat weight) were orally administrated to male rats (weighing 250 g to 270 g) and blood samples (0.3 ml) were taken at timed intervals. Blood samples were centrifuged and plasma was taken out. Plasma was extracted with 0.5 ml of dichloromethane. Dichloromethane layer was evaporated by nitrogen/air blowing. The residual materials were dissolved in 0.5 ml of 40% acetonitrile in 10 mM phosphate buffer (pH 7.4). Amounts of OMEPRAZOLE were determined by HPLC analysis. As a control, OMEPRAZOLE (4 mg/kg of rat weight) was orally administrated.
The nature of data set [3]: Chemical stability: hydrolysis half-life in buffer solution at various pH. Format: physicochemical. An excerpt: By way of concrete examples, the following tests and results are described. […] This is consistent with the knowledge that the compounds obtained by hydrolysis e. g. LANSOPRAZOLE, OMEPRAZOLE, PANTOPRAZOLE and RABEPRAZOLE are well known H,K-ATPase inhibitors. […] Another good example is 2-(2-carbamoylmethoxy-4-{2-[4-(3-methoxypropoxy)-3-methyl pyridin-2-yl methylsulfinyl]benzimidazole-1-sulfonyl}phenoxy)acetamide. The half life of this compound dependes on pH. […] Based on these measured characteristics the compound 2-(2-carbamoylmethoxy-4-{2-[4-(3-methoxypropoxy)-3-methyl pyridin-2-yl methylsulfinyl]benzimidazole-1-sulfonyl}phenoxy)acetamide is expected to be well absorbed, and slowly release the parent RABEPRAZOLE in the blood, resulting in long-lasting in vivo activity. This compound can also be administered intravenously in an aqueous solution at pH 7.4 which solution may include 2-hydroxypropyl-β-cyclodextrin.
The chemical stability of the compounds of the invention has been followed kinetically at low concentration at 37° C. in a buffer solution composed of 0.2M NaCl, 50 mM sodium phosphate, pH 7.4, 2% bovine albumin serum, 5-10% methanol.
The hydrolysis of 2-(2-carbamoylmethoxy-4-{2-[4-(3-methoxy-propoxy)-3-methyl-pyridin-2-ylmethanesulfinyl]-benzimidazole-1-sulfonyl}-phenoxy)-acetamide was measured at various pH.

Setting [4] is: between 4-7 hr after oral administration.
[5] abbreviates: 20 min after oral administration, examples 2 mg/kg, OMEPRAZOLE 4 mg/kg.
[6] abbreviates: 40 min after oral administration, examples 2 mg/kg, OMEPRAZOLE 4 mg/kg.
The mark [7] stands for this setting: 60 min after oral administration, examples 2 mg/kg, OMEPRAZOLE 4 mg/kg.
[8] abbreviates: 80 min after oral administration, examples 2 mg/kg, OMEPRAZOLE 4 mg/kg.
[9] abbreviates: 100 min after oral administration, examples 2 mg/kg, OMEPRAZOLE 4 mg/kg.
Where [10] appears, read: 120 min after oral administration, examples 2 mg/kg, OMEPRAZOLE 4 mg/kg.
Where [11] appears, read: 140 min after oral administration, 2 mg/kg.
Where [12] appears, read: 160 min after oral administration, 2 mg/kg.
Where [13] appears, read: 180 min after oral administration, 2 mg/kg.
Setting [14] is: 210 min after oral administration, 2 mg/kg.
Setting [15] is: 240 min after oral administration, 2 mg/kg.
The mark [16] stands for this setting: 270 min after oral administration, 2 mg/kg.
The mark [17] stands for this setting: 300 min after oral administration, 2 mg/kg.
Setting [18] is: 330 min after oral administration, 2 mg/kg.
[19] abbreviates: 360 min after oral administration, 2 mg/kg.
Where [20] appears, read: between 5-8 hours after oral administration, 10 μmole/kg, histamine and carbachol stimulated.

`Cc1c(OCC(F)(F)F)ccnc1C[S+]([O-])c1nc2ccccc2n1S(=O)(=O)c1ccc(OCC(N)=O)cc1` (stereo not drawn) [Example 54]: the “% inhibition of gastric acid secretion” value in data set [1] (setting [4]) worked out at 46.9%; in data set [1] (between 4-7 hr after oral administration, listed as 2-(4-{[2-({[3-Methyl-4-(2,2,2-trifluoroethoxy)-2-pyridyl]methyl}sulfinyl) benzim)), 46.9%.
Consider “1-[4-[3-(morpholin-4-yl) propoxy]benzenesulfonyl]-5-methoxy-2-[[(3,5-dimethyl-4-methoxy-2-pyridyl)methyl]sulfinyl]-1H-benzimidazole and 1-[4-[3-(morpholin-4-yl) propoxy]benzenesulfonyl]-6-methoxy-2-[[(3.5-dimethyl-4-methoxy-2-pyridyl)methyl]sulfinyl]-1H-benzimidazole [Example 37]”, for which the “Relative concentration of OMEPRAZOLE released in the plasma” value (shortened to “Relative concentration”) in data set [2] (setting [5]) was determined as 1.67 arbitrary unit; in data set [2] (setting [6]), 14.36 arbitrary unit; in data set [2] (setting [7]), 3.5 arbitrary unit; in data set [2] (setting [8]), 1.88 arbitrary unit; in data set [2] (setting [9]), 1.88 arbitrary unit; in data set [2] (setting [10]), 1.5 arbitrary unit. The “Relative concentration” value is 1.5 arbitrary unit in data set [2] (setting [11]); 1 arbitrary unit in data set [2] (setting [12]); 1 arbitrary unit in data set [2] (setting [13]); 0.7 arbitrary unit in data set [2] (setting [14]); 0.7 arbitrary unit in data set [2] (setting [15]); 0.7 arbitrary unit in data set [2] (setting [16]). Also, the “Relative concentration” value in data set [2] (setting [17]) was 0.4 arbitrary unit; in data set [2] (setting [18]), 0.2 arbitrary unit; in data set [2] (setting [19]), 0.1 arbitrary unit; in data set [2] (390 min after oral administration, 2 mg/kg), 0.1 arbitrary unit.
“N-[4-[[5-methoxy-2-[[(3,5-dimethyl-4-methoxy-2-pyridyl)methyl]sulfinyl]benzimidazol-1-yl]sulfonyl]phenyl]urea and N-[4-[[6-methoxy-2-[[(3,5-dimethyl-4-methoxy-2-pyridyl)methyl]sulfinyl]benzimidazol-1-yl]sulfonyl]phenyl]urea [Example 29]”: the “Relative concentration” value worked out at 4.5 arbitrary unit in data set [2] (setting [5]); 14 arbitrary unit in data set [2] (setting [6]); 8.5 arbitrary unit in data set [2] (setting [7]); 3.5 arbitrary unit in data set [2] (setting [8]); 2.5 arbitrary unit in data set [2] (setting [9]); 1.875 arbitrary unit in data set [2] (setting [10]). In addition, the “Relative concentration” value came out at 0.625 arbitrary unit in data set [2] (setting [11]); 0.6 arbitrary unit in data set [2] (setting [12]); 0.6 arbitrary unit in data set [2] (setting [13]); 1.5 arbitrary unit in data set [2] (setting [14]); 0.5 arbitrary unit in data set [2] (setting [15]); 0.5 arbitrary unit in data set [2] (setting [16]). Further, the results for the “Relative concentration” value in data set [2] (setting [17]), in data set [2] (setting [18]) and in data set [2] (setting [19]) were 0.2 arbitrary unit, 0.1 arbitrary unit and 0.05 arbitrary unit, respectively.
With `COCCCOc1ccnc(C[S+]([O-])c2nc3ccccc3n2S(=O)(=O)c2ccc(OCC(N)=O)c(OCC(N)=O)c2)c1C` (stereo not drawn) [Example 77, 2-(2-carbamoylmethoxy-4-{2-[4-(3-methoxypropoxy)-3-methylpyridin-2-ylmethylsulfinyl]benzimidazole-1-sulfonyl}phenoxy)acetamide], in data set [1], the “inhibition of gastric acid secretion” value came out at 56%. For the same molecule, the “% inhibition of gastric acid secretion” value in data set [1] (setting [4]) turned out to be 56%. In addition, the half-life of hydrolysis was 3.73 h in data set [3] (2 mg/mL, pH 7.4); 1.8 h in data set [3] (buffer, pH 2); 10.7 h in data set [3] (buffer, pH 8). Moreover, the half-life in data set [3] (bovine, pH 7.4, half-life of hydrolysis) is roughly 22.2 h; in data set [3] (buffer, pH 2, half-life of hydrolysis), roughly 1.8 h; in data set [3] (buffer, pH 8, half-life of hydrolysis) it was roughly 10.7 h. Further, the half-life at 2 mg/mL in data set [3] (pH 7.4, half-life of hydrolysis) was roughly 3.7 h.
As for “N-(carbamoylmethyl)-2-{4-[(5-methoxy-2-{[(3,5-dimethyl-4-methoxy-2-pyridyl)methyl]sulfinyl}benzimidazol-1-yl)sulfonyl]phenoxy}acetamide and N-(carbamoylmethyl)-2-{4-[(6-methoxy-2-{[(3.5-dimethyl-4-methoxy-2-pyridyl)methyl]sulfinyl}benzimidazol-1-yl)sulfonyl]phenoxy}acetamide [Example 62]”, the “% inhibition of gastric acid secretion” value in data set [1] (between 5.5-8.5 hours after oral administration, 10 μmole/kg, histamine and carbachol stimulated) came to 14.1 ± 7.5%.
Consider `Cc1c(OCC(F)(F)F)ccnc1C[S+]([O-])c1nc2ccccc2[nH]1` (stereo not drawn) [LANSOPRAZOLE, reference compound], for which the “% inhibition of gastric acid secretion” value worked out at 29% in data set [1] (setting [4]) and 29% in data set [1] (between 4-7 hr after oral administration, listed as LANOPRAZOLE).
With “N-(2-{4-[5-methoxy-2-(4-methoxy-3,5-dimethyl pyridin-2-yl methylsulfinyl)benzimidazole-1-sulfonyl]-phenoxy}ethyl)-N,N,N-trimethyl ammonium trifluoromethanesulfonate and N-(2-{4-[6-methoxy-2-(4-methoxy-3,5-dimethyl pyridin-2-yl methylsulfinyl)benzimidazole-1-sulfonyl]-phenoxy}ethyl)-N,N,N-trimethyl ammonium trifluoromethanesulfonate [Example 73]”, the “% inhibition of gastric acid secretion” value in data set [1] (setting [20]) is given as 21.8 ± 11.7%.
On to `COCCCOc1ccnc(C[S+]([O-])c2nc3ccccc3[nH]2)c1C` (stereo not drawn) [RABEPRAZOLE, reference compound], for which the “inhibition of gastric acid secretion” value in data set [1] was found to be 32%. In addition, the “% inhibition of gastric acid secretion” value in data set [1] (setting [4]) is reported as 32%.
In the case of `Cc1c(OCC(F)(F)F)ccnc1C[S+]([O-])c1nc2ccccc2n1S(=O)(=O)c1ccc(OCC(N)=O)c(OCC(N)=O)c1` (stereo not drawn) [Example 79, 2-(2-Carbamoylmethoxy-4-{2-[3-methyl-4-(2,2,2-trifluoro-ethoxy)-pyridin-2-ylmethanesulfinyl]-benzimidazole-1-sulfonyl}-phenoxy)-acetamide], the “% inhibition of gastric acid secretion” value in data set [1] (setting [4]) is reported as 36.8%.
For the molecule “2-{4-[(5-methoxy-2-{[(3.5-dimethyl-4-methoxy-2-pyridyl)methyl]sulfinyl}benzimidazol-1-yl)sulfonyl]phenoxy}acetamide and 2-{4-[(6-methoxy-2-{[(3,5-dimethyl-4-methoxy-2-pyridyl)methyl]sulfinyl}benzimidazol-1-yl)sulfonyl]phenoxy}acetamide [Example 53]”, the “% inhibition of gastric acid secretion” value in data set [1] (setting [20]) stood at 65.2 ± 11.3%.
With “1-(Pyridine-3-sulfonyl)-5-methoxy-2-[[(3,5-dimethyl-4-methoxy-2-pyridylmethyl]sulfinyl]-1H-benzimidazole and 1-(pyridine-3-sulfonyl-6-methoxy-2-[[(3,5-dimethyl-4-methoxy-2-pyridyl)methyl]sulfinyl]-1H-benzimidazole [Example 25]”, the “% inhibition of gastric acid secretion” value in data set [1] (setting [20]) was 61% and 61.3 ± 16.1%.
